We go through 14 compounds from patent US11053234B2 (GlaxoSmithKline Intellectual Property Development Limited, priority 2016, dated 2021).

The target of the assay is T1, haematopoietic prostaglandin D synthase (H-PGDS) (Homo sapiens, UniProt O60760).
T1 construct: Full length human H-PGDS cDNA (Invitrogen Ultimate ORF 10H13026) was amplified by PCR; 6-His (N); TEV protease cleavage site (N); made in house; host or cells: E. coli BL21 (DE3*), vector pET22b+
T1 sequence (O60760 whole entry): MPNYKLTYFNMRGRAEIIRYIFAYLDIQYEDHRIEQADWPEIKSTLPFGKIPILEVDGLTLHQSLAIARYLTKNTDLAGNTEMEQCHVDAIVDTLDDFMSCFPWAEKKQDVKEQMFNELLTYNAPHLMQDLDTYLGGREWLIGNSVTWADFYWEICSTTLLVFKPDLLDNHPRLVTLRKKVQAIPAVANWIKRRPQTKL
The assay can be described thus: H-PGDS RapidFire high throughput mass spectrometry assay (conversion of PGH2 to PGD2). The assay is classed as biochemical. Conditions: 10 nM H-PGDS, PGH2 formed in situ by COX-2 from arachidonic acid; read-out: Potency Range (mean pIC50) (converted). The method, then:
H-PGDS RapidFire™ High Throughput Mass Spectrometry Assay
The H-PGDS RapidFire™ mass spectrometric assay monitors conversion of prostaglandin H2 (PGH2) to prostaglandin D2 (PGD2) by haematopoietic prostaglandin D synthase (H-PGDS). In the assay format described here, the substrate (PGH2) is formed in situ by the action of cyclooxygenase-2 on arachidonic acid. This first step is set up to be fast, and generates a burst of PGH2 at ˜10 μM. The PGH2 is then further converted to PGD2 by the H-PGDS enzyme. […] Plates are then read on the RapidFire™ high throughput solid phase extraction system (Agilent) which incorporates a solid phase extraction step coupled to a triple quadrupole mass spectrometer (AB SCIEX). Relative levels of PGD2 and PGF2α, which acts as a surrogate for substrate, are measured and a percent conversion calculated.
Expression and Purification of H-PGDS Protein
Full length human H-PGDS cDNA (Invitrogen Ultimate ORF 10H13026) was amplified by PCR with the addition of a 5′ 6-His tag and TEV protease cleavage site. The PCR product was digested with Ndel and Xhol and ligated into pET22b+ (Merck Novagen®). Expression was carried out in E. coli strain BL21 (DE3*) using auto-induction Overnight Express™ Instant TB medium (Merck Novagen®) supplemented with 1% glycerol. The culture was first grown at 37° C. and the temperature was reduced to 25° C. when OD600 reached 2.0. Cells were harvested by centrifugation after a further 18 hr. 10 g of E. coli cell pellet was suspended to a total volume of 80 mL in lysis buffer (20 mM Tris-Cl pH 7.5, 300 mM NaCl, 20 mM imidazole, 5 mM β-mercaptoethanol, 10% glycerol). 1 mg/mL protease inhibitors (Protease Inhibitor Cocktail Set III, Merck Calbiochem®) and 1 mg/mL lysozyme were added to the cell suspension. The suspension was then sonicated for 5 min (UltraSonic Processor VCX 750, Cole-Parmer Instrument Co.) with a micro probe (50% amplitude, 10 sec on/off) and then centrifuged at 100,000 g for 90 min (at 4° C.). The supernatant was loaded onto a Ni-NTA HiTrap column (5 mL, GE Healthcare, pre-equilibrated in lysis buffer). The column was washed with 10 column volumes of lysis buffer and eluted with lysis buffer containing 500 mM imidazole. The pooled protein peak fractions were concentrated using a 10 kDa centrifugal filter at 3500 g and 4° C. (Amicon Ultra-15 centrifugal filter unit with Ultracel-10 membrane from Millipore). Further purification of the concentrated protein was carried out using gel filtration chromatography on a HiLoad 26/600 Superdex 75 preparative grade column (GE Healthcare Life Sciences) using 50 mM Tris pH 7.5, 50 mM NaCl, 1 mM dithiothreitol, 1 mM MgCl2. Fractions containing the protein were pooled, concentrated as described above, and stored at −80° C.
Expression and Purification of Cyclooxygenase-2 (COX-2) Protein
The full length human COX-2 gene (accession number L15326) was amplified by PCR to generate an EcoRI-HindIII fragment containing an in-frame FLAG tag. This was subcloned into pFastBac 1 (Invitrogen). The COX2 FLAG plasmid was recombined into the baculovirus genome according to the BAC-to-BAC protocol described by Invitrogen. Transfection into Spodoptera frugiperda (Sf9) insect cells was performed using Cellfectin (Invitrogen), according to the manufacturer's protocol. […] Cells were harvested using a continuous feed centrifuge run at 2500 g at a rate of approximately 2 L/min with cooling. The resultant cell slurry was re-centrifuged in pots (2500 g, 20 min, 4° C.) and the cell paste was stored at −80° C. […] The suspension was sonicated in 500 mL batches for 8×5 seconds at 10 u amplitude with the medium tip of an MSE probe sonicator and subsequently incubated at 4° C. for 90 min with gentle stirring. The lysate was centrifuged at 12000 rpm for 45 min at 4° C. in a Sorvall SLA1500 rotor. The supernatant (1400 mL) was added to 420 mL of 20 mM Tris-Cl pH 7.4, 150 mM NaCl, 0.1 mM EDTA to reduce the concentration of n-octyl-6-D-glucopyranoside to 1% w/v.
`CC(C)Nc1nccc(N2CC(NC(=O)[C@H]3C[C@H](Oc4cccc5scnc45)C3)C2)n1` [Example 70, (trans)-3-(Benzo[d]thiazol-4-yloxy)-N-(1-(2-(isopropylamino)pyrimidin-4-yl)azetidin-3-yl)cyclobutanecarboxamide]: the IC50 is 100 to 1000 nM.

As to `O=C(Nc1nc(C2CC2)ns1)N1CC(Oc2cccc3scnc23)C1` [Example 338, 3-(Benzo[d]thiazol-4-yloxy)-N-(3-cyclopropyl-1,2,4-thiadiazol-5-yl)azetidine-1-carboxamide], the IC50 is below 10 nM.

Turning to `COc1ccc(F)cc1O[C@H]1C[C@H](C(=O)N[C@H]2CC[C@H](C(C)(C)O)CC2)C1` [Example 168, (trans)-3-(5-Fluoro-2-methoxyphenoxy)-N-((trans)-4-(2-hydroxypropan-2-yl)cyclohexyl)cyclobutanecarboxamide], the IC50 is 10 to 79.4 nM.

With `O=C(Nc1nccs1)[C@H]1C[C@H](Oc2cccc(Cl)c2)C1` [Example 287, (trans)-3-(3-Chlorophenoxy)-N-(thiazol-2-yl)cyclobutanecarboxamide], the IC50 was 10 to 79.4 nM.

`CC(C)(O)[C@H]1CC[C@H](NC(=O)N2CC(Oc3cccc4cccnc34)C2)CC1` [Example 185, N-((trans)-4-(2-Hydroxypropan-2-yl)cyclohexyl)-3-(quinolin-8-yloxy)azetidine-1-carboxamide]: the IC50 is 10 to 79.4 nM.

Regarding `CC(C)(O)[C@H]1CC[C@H](NC(=O)[C@H]2C[C@H](Oc3cc(F)cc4scnc34)C2)CC1` [Example 140, (trans)-3-((6-Fluorobenzo[d]thiazol-4-yl)oxy)-N-((trans)-4-(2-hydroxypropan-2-yl)cyclohexyl)cyclobutanecarboxamide], the IC50 was 10 to 79.4 nM.

Regarding `COc1ccc(F)cc1O[C@H]1C[C@H](C(=O)NC2CN(c3cc(C#N)ccn3)C2)C1` [Example 149, (trans)-N-(1-(4-Cyanopyridin-2-yl)azetidin-3-yl)-3-(5-fluoro-2-methoxyphenoxy)cyclobutanecarboxamide], the IC50 is below 10 nM.

Turning to `O=C(N[C@H]1CC[C@H](N2CC(F)(F)C2)CC1)N1CC(Oc2cccc3scnc23)C1` [Example 57, 3-(Benzo[d]thiazol-4-yloxy)-N-((trans)-4-(3,3-difluoroazetidin-1-yl)cyclohexyl)azetidine-1-carboxamide], the IC50 is 100 to 1000 nM.

Consider `Cn1ccc(NC(=O)N2CC(Oc3cccc4scnc34)C2)n1` [Example 322, 3-(Benzo[d]thiazol-4-yloxy)-N-(1-methyl-1H-pyrazol-3-yl)azetidine-1-carboxamide], for which the IC50 is 100 to 1000 nM.

As to `CC(C)(O)C12CC(NC(=O)[C@H]3C[C@H](Oc4cccc5scnc45)C3)(C1)C2` [Example 318, (trans)-3-(Benzo[d]thiazol-4-yloxy)-N-(3-(2-hydroxypropan-2-yl)bicyclo[1.1.1]pentan-1-yl)cyclobutane-1-carboxamide], the IC50 is 10 to 79.4 nM.

With `CC(=O)c1cnc(NC(=O)[C@H]2C[C@H](Oc3cccc4cccnc34)C2)o1` [Example 174, (trans)-N-(5-Acetvloxazol-2-yl)-3-(quinolin-8-yloxy)cyclobutanecarboxamide], the IC50 was 10 to 79.4 nM.

As for `CC(C)(O)CO[C@H]1CC[C@H](NC(=O)[C@H]2C[C@H](Oc3cc(F)ccc3OC(F)F)C2)CC1` [Example 33, (trans)-3-(2-(Difluoromethoxy)-5-fluorophenoxy)-N-((trans)-4-(2-hydroxy-2-methylpropoxy)cyclohexyl)cyclobutanecarboxamide], the IC50 is 10 to 79.4 nM.

Take `COc1ccc(F)cc1O[C@H]1C[C@H](C(=O)Nc2nnc(C)s2)C1` [Example 166, (trans)-3-(5-Fluoro-2-methoxyphenoxy)-N-(5-methyl-1,3,4-thiadiazol-2-yl)cyclobutanecarboxamide]: the IC50 is 10 to 79.4 nM.

Take `O=C(NC1CCN(c2ccccn2)C1)N1CC(Oc2cccc3scnc23)C1` (racemic) [Example 87, Racemic 3-(Benzo[d]thiazol-4-yloxy)-N-(1-(pyridin-2-yl)pyrrolidin-3-yl)azetidine-1-carboxamide]: the IC50 is 100 to 1000 nM.
